Publication PMC4184701 (Pharmacology Research & Perspectives, 2014)
Values joined by “and” are separate entries in the source; they are usually repeats but may differ in a detail not shown here. Equal entries are not always repeated. Where two headings read alike, the source gives them in different places.

What was measured:
Aβ1-42 = target: T1, Aβ1-42 (Homo sapiens, UniProt P05067); assay: biochemical; details: ± SEM; 50 μmol/L Aβ, 30°C, 24 h, ThT; highest tested concentration 50 μmol/L; read-out: IC50 Aβ1-42 self-aggregation
T1 construct: 1,1,1,3,3,3-hexafluoro-2-propanol pretreated Aβ1-42 samples (Bachem AG, Switzerland); purchased Bachem AG, Switzerland
T1 sequence (P05067 672-713 limits assumed): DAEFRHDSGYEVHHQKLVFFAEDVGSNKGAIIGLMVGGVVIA

SH-SY5Y cells [1] = assay: Aβ1-42 oligomer-induced cytotoxicity, MTT assay, SH-SY5Y cells; assay type: cell-based; details: Homo sapiens; for IC50: 3 h, read-out: IC50 Aβ1-42 oligomer toxicity SH-SY5Y cells; for inhibition at 30 µM: read-out: toxicity inhibition
THP-1 cells [2] = assay: Aβ1-42 oligomer-induced cytotoxicity, MTT assay, THP-1 cells; assay type: cell-based; details: Homo sapiens, read-out: IC50 Aβ1-42 oligomer toxicity THP-1 cells
BACE1 [3] = target: T2, BACE1 (Homo sapiens, UniProt P56817); details: cited from earlier work
T2 sequence (P56817 46-501): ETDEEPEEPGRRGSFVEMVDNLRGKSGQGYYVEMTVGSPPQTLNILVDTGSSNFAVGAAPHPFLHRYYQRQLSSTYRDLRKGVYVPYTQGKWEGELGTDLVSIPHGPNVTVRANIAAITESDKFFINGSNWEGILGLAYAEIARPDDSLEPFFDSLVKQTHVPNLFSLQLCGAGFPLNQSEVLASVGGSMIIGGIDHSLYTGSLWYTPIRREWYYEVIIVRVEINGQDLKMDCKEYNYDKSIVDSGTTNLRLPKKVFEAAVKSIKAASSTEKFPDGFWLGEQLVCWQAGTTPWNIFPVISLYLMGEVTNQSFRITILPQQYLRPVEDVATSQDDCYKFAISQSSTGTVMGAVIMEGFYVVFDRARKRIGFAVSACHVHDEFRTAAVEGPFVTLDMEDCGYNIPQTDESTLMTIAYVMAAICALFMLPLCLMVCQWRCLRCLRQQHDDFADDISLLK

SH-SY5Y cells [4] = assay: Aβ25-35 peptide-induced cytotoxicity, MTT assay, SH-SY5Y cells; details: 1–30 μmol/L, Aβ25-35 5 μmol/L, 3 h
[5] = target: T3, BuChE derived from human serum (Homo sapiens, UniProt P06276); assay: biochemical; assay type: biochemical; details: ± SEM; 20 min preincubation at 37°C, pH 8.0; read-out: IC50 hBuChE
T3 construct: BuChE derived from human serum (Sigma Chemical, Milan, Italy); purchased Sigma Chemical, Milan, Italy; host or cells: human serum
T3 sequence (P06276 29-602): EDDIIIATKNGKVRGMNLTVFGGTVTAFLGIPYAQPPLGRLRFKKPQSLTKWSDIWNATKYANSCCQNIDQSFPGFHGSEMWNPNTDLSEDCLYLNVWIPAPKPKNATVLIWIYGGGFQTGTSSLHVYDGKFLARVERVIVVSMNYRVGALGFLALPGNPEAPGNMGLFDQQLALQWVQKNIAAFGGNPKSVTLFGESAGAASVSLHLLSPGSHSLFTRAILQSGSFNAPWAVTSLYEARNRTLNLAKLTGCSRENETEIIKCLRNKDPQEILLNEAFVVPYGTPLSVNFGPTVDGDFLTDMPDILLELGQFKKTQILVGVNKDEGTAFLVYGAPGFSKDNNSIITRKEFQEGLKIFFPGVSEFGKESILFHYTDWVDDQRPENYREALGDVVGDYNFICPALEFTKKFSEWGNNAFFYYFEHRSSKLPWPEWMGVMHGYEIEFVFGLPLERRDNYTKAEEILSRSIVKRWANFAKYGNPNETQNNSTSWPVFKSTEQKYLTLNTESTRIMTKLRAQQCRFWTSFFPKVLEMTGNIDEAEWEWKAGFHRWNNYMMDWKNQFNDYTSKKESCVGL

BACE1 [6] = target: T2, BACE1; assay: Inhibition of BACE1 (FRET assay); assay type: biochemical; details: ± SEM, Panvera peptide substrate, pH 4.5
SH-SY5Y cells [7] = assay: Aβ1-42 oligomer binding to the cell surface (Congo red assay), SH-SY5Y cells; assay type: cell-based, human; details: compound 30 μmol/L, Aβ1-42 oligomers 5 μmol/L, 30 min cotreatment
Method: (§1) SH-SY5Y and THP-1 cells were seeded in 96-well plates at 5 × 10^3 cells/well and 5 × 10^4 cells/well, respectively, for 24 h. At the end of incubation, the medium was changed with a fresh one with Aβ1-42 oligomer (5 μmol/L) and various compounds at 30 μmol/L for 30 min and then washed twice with PBS. The residual Aβ1-42 oligomer cell complex was stained with 1 μmol/L of Congo red (CR) in PBS for 20 min and measured with a spectrophotometer (TECAN®, GENios) at 540 nm (bound CR). CR values are reported as percent increases in treated cells versus untreated cells.

THP-1 cells [8] = assay: Aβ1-42 oligomer binding to the cell surface (Congo red assay), THP-1 cells; assay type: cell-based, human; details: compound 30 μmol/L, Aβ1-42 oligomers 5 μmol/L, 30 min cotreatment
Method: as §1

[9] = tested on: hAChE-induced amyloid aggregation; design: method as in Piazzi et al. [2003], [2007]; details: at 100 μmol/L concentration; ref Piazzi et al. [2003], [2007]; cited from earlier work
human recombinant AChE = human recombinant AChE (Homo sapiens, UniProt P22303); assay: biochemical; details: ± SEM; 20 min preincubation at 37°C, pH 8.0; read-out: IC50 hAChE
Chain of human recombinant AChE (P22303 32-614): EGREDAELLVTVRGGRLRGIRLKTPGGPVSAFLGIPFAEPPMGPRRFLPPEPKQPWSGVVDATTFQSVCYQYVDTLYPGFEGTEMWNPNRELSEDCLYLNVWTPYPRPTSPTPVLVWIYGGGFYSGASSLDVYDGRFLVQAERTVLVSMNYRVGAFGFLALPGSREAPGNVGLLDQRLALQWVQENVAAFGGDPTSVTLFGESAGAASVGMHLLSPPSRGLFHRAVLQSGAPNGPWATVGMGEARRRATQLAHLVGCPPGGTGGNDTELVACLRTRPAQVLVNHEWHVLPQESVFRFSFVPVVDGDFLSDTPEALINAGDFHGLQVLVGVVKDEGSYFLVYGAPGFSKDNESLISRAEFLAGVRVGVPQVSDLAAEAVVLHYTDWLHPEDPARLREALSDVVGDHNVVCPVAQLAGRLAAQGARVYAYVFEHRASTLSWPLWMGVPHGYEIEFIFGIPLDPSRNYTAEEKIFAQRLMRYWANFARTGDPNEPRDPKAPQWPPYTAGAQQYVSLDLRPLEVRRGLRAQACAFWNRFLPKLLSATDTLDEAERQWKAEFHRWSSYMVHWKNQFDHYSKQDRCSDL

SH-SY5Y cells [10] = assay: Aβ1-42 oligomer-induced intracellular ROS formation (DCFH-DA, DHE); assay type: cell-based, human; details: 3–30 μmol/L, 3 h pretreatment, Aβ1-42 oligomers 5 μmol/L
Method: The intracellular hydrogen peroxide and superoxide anion formation induced by Aβ1-42 oligomer at SH-SY5Y cell level was determined using, respectively, the probe 2′,7′-dichlorodihydrofluorescein diacetate (DCFH-DA, λexc = 485 nm, λem = 535 nm), and dihydroethidium (DHE, λexc = 380 nm, λem = 445 nm). SH-SY5Y cells were cultured in BD Falcon™ 8-well Culture slides (surface area 0.7 cm^2/well) at 1 × 10^4 cells/well for 24 h. The cells were then treated for 3 h with various concentrations of compounds (3–30 μmol/L) at 37°C prior to the treatment of 3 h with Aβ1-42 oligomer (5 μmol/L). At the end of treatment, the cells were washed and incubated with DCFH-DA (5 μmol/L) or DHE (10 μmol/L) for 30 min in the dark. After removal of the probes, cells were washed with PBS and incubated with DMEM serum free for 1 h at 37°C. Intracellular ROS formation was measured under a fluorescence microscope (Zeiss Axio Imager M1). Fluorescence images were captured with an AxioVision image recording system computer. Four randomly selected areas with 50–100 cells in each were analyzed and the values obtained are expressed as fold increases in hydrogen peroxide and superoxide anion versus untreated cells.

SH-SY5Y cells [11] = assay: t-BuOOH-induced intracellular ROS formation (DCFH-DA, DHE); assay type: cell-based, human; details: 3–30 μmol/L, 3 h pretreatment, t-BuOOH 50 μmol/L
Method: As above, the intracellular hydrogen peroxide and superoxide anion formation induced by tert-butyl hydroperoxide (t-BuOOH) at SH-SY5Y cell level was determined using, respectively, the probes DCFH-DA and DHE. Briefly, SH-SY5Y cells were cultured in 96-well microtiter plates at 3 × 10^4 cells/well for 24 h. The medium was then removed and the cells were treated for 3 h with various concentrations of compounds (3–30 μmol/L) at 37°C. After treatment, the cells were washed with PBS and then incubated with DCFH-DA (5 μmol/L) or DHE (10 μmol/L) in PBS at 37°C in 5% CO2 for 30 min. After removal of the probes and further washing, the cells were incubated with t-BuOOH (50 μmol/L) in PBS for 30 min. At the end of incubation, the green or red fluorescence of the cells from each well was measured with a spectrofluorometer (TECAN®, GENios). The results are expressed as fold increases in intracellular ROS evoked by exposure to t-BuOOH.

SH-SY5Y cells [12] = assay: Total antioxidant activity in membrane and cytosolic fractions (ABTS decolorization); assay type: cell-based, human; details: SH-SY5Y treated 2 h, vs untreated cells
THP-1 cells [13] = assay: Aβ1-42 oligomer-induced NO and TNFα release; assay type: cell-based, human; details: 30 μmol/L
Method: THP-1 cells were seeded in 96-well plates at 5 × 10^4 cells/well for 24 h. At the end of incubation, the medium was changed with a fresh one with AP2469 30 μmol/L for 3 h. The cells were then washed with PBS and incubated for a further 12 h with Aβ1-42 oligomer (5 μmol/L). The content of each well was then removed and centrifuged at 2500g for 10 min, and the supernatant was frozen at −20°C for the subsequent analysis of released NO and tumor necrosis factor alpha (TNFα). To determine the NO levels, 100 μL of supernatant was incubated with 100 μL of Griess reagent (Sigma Aldrich) in the dark at room temperature for 15 min. The intensity of the color that developed was then measured at 540 nm using a spectrophotometer (TECAN®, GENios). Values are reported as percent increases in treated cells versus untreated cells. The TNFα levels in 100 μL of supernatant were determined by Ray Bio® ELISA kit according to the manufacturer's instructions (Ray Biotech, Inc., GA). The concentration of TNFα levels was calculated from a TNFα standard curve standard of 25–6000 pg/mL and the values are reported as percent increases in treated cells versus untreated cells.

THP-1 cells [14] = assay: Aβ-induced toxicity (Aβ1-42 oligomers, Aβ25-35), MTT assay, THP-1 cells; assay type: cell-based, human; details: 1–30 μmol/L, Aβ 5 μmol/L, 3 h
[15] = SH-SY5Y, ± SEM, 5 μmol/L Aβ1-42 oligomers, MTT, highest tested concentration 30 μmol/L
[16] = THP-1, ± SEM, 5 μmol/L Aβ1-42 oligomers, 3 h, MTT, highest tested concentration 30 μmol/L

SMILES | IC50 (Aβ1-42) [µM] | cytotoxicity elicited by Aβ25-35 peptide in SH-SY5Y cells (SH-SY5Y cells [4]) | IC50 [5] [µM] | IC50 (BACE1 [6]) | IC50 (SH-SY5Y cells [1]; [15]) [µM] | IC50 (THP-1 cells [2]; [16]) [µM] | binding of Aβ1-42 oligomers with SH-SY5Y cells (CR assay) (SH-SY5Y cells [7]) | binding of Aβ1-42 oligomers with THP-1 cells (CR assay) (THP-1 cells [8]) | inhibition of hAChE-induced amyloid aggregation [9] [%] | also measured
COc1ccc2c3c1O[C@H]1C[C@@H](O)C=C[C@@]31CCN(C)C2 [Galantamine, reference compound] | > 50 | dose-dependent decrease | – | – | – | – | – | – | – | IC50 (SH-SY5Y cells [1]; SH-SY5Y): 7.99 ± 0.91 µM; inhibition at 30 µM (SH-SY5Y cells [1]; SH-SY5Y): 58%; IC50 (THP-1 cells [2]; THP-1, 3 h): > 30 µM; IC50 (BACE1 [3]; not active at the highest tested concentration (5 μmol/L), ref Mancini et al. [2007], read-out: IC50 BACE1): > 5 µM
CCN(Cc1ccccc1)Cc1ccc(-c2cc3cc(OC)c(OC)cc3oc2=O)cc1 [AP2243] | > 50 | – | 118 ± 16 | 0.24 ± 0.03 µM | > 30 | > 30 | did not modify | did not modify | 38 | –
c1ccc2c(NCCCCCCCNc3c4c(nc5ccccc35)CCCC4)c3c(nc2c1)CCCC3 [bis(7)-tacrine] | – | – | – | – | – | – | – | – | – | IC50 (BACE1 [3]; noncompetitive BACE1 inhibitor, ref Fu et al. [2008], read-out: BACE1 inhibitory activity): 7.5 µM
CCN(Cc1ccccc1)Cc1ccc(-c2cc3cc(O)c(O)cc3oc2=O)cc1 [AP2469, 3-{4-[(Benzylethylamino)-methyl]phenyl}-6,7-dihydroxychromen-2-one] | 21.7 ± 3.4 | dose-dependent decrease | 124 ± 13 | 6.5 µM and 6.49 µM | 7.5 ± 0.72 | 8.18 ± 0.51 | significantly reduced | significantly reduced | – | IC50 (human recombinant AChE): 8.6 ± 0.21 µM; inhibition at 30 µM (SH-SY5Y cells [1]; at 30 μmol/L, Aβ1-42 oligomers 5 μmol/L, SH-SY5Y cells): 93%; Aβ1-42 oligomer-induced hydrogen peroxide and superoxide anion formation (SH-SY5Y cells [10]): significantly inhibited; ROS formation induced by t-BuOOH (SH-SY5Y cells [11]): significantly reduced; total antioxidant activity (TAA), membrane fraction (SH-SY5Y cells [12]; 3–30 μmol/L): significant only at the highest tested concentration; total antioxidant activity (TAA), cytosolic fraction (SH-SY5Y cells [12]; all tested concentrations (3–30 μmol/L)): significant TAA increase; Aβ1-42 oligomer-induced TNFα release (THP-1 cells [13]; ELISA): inhibited; Aβ1-42 oligomer-induced NO release (THP-1 cells [13]; Griess reagent): reduced; Aβ-induced toxicity in THP-1 cells (THP-1 cells [14]): significant inhibitor effects
COc1cc2cc(-c3ccc(CN(C)Cc4ccccc4)cc3)c(=O)oc2cc1OC [AP2238, 3-(4-{[Benzyl(methyl)amino]methyl}-phenyl)-6,7-dimethoxy-2H-2-chromenone] | > 50 | – | – | – | – | – | – | – | 35 | –
